Our source for the IC50 values is patent publication US12643887B2, “Heterocyclic derivatives with cardiomyocyte proliferation activity for treatment of heart diseases” (Tongji University, priority 2019, dated 2026).

One assay has as its target T1, human DYRK1A (Homo sapiens, UniProt Q13627).
T1 construct: Recombinant full-length DYRK1A (expressed in E. Coli cells with an N-terminal GST tag); GST (N); purchased SignalChem D09-10G; host or cells: E. coli
Description: DYRK1A enzyme assay (ADP-Glo). Type of assay: biochemical. The following applies: ADP-Glo, ATP 60 μM; read-out: DYRK1A IC50. As for the experimental part: The ability of compounds to inhibit human DYRK1A kinase activities was determined using a commercially available ADP-Glo™ Kinase Assay kit (Promega, Cat #V9102) according to the manufacturer's protocol.
Recombinant full-length DYRK1A (expressed in E. Coli cells with an N-terminal GST tag) was purchased from SignalChem (Cat #D09-10G). The DYRK substrate peptide (DYRKtide, sequence: […]) was purchased from SignalChem (Cat #D96-58). This assay, run in a 384-well plate format, is a generic method for measuring kinase activities using an ADP-Glo Kinase Assay Kit. The basic assay procedure involves two steps: (1) Enzymatic step: inhibitors are incubated with the kinase and then ATP (included in the ADP-Glo Kinase Assay Kit) and the DYRKtide are added to start the enzymatic reaction; (2) Detection step: after the kinase reaction, first ADP-Glo™ Reagent is added to terminate the kinase reaction and deplete the remaining ATP. Second, the Kinase Detection Reagent is added to simultaneously convert ADP to ATP and allow the newly synthesized ATP to be measured using a luciferase/luciferin reaction. The light generated is measured using a luminometer.
Briefly, DYRK1A (3 nM) in the enzymatic buffer solutions (40 mM Tris, pH 7.5, 20 mM MgCl2, 0.1 mg/ml BSA, 50 μM DTT) were mixed with various concentrations of inhibitors (dissolved in 100% DMSO). These solutions were incubated for 30 minutes at 25° C., and subsequently a mixture of substrate peptide and ATP was added with the final peptide and ATP concentrations at 20 μM and 60 μM, respectively. The final reaction mixture of enzyme-substrate-ATP-compound was incubated for 60 minutes at 25° C.
Afterwards ADP-Glo™ Reagent was added and the mixture was incubated at 25° C. for 60 minutes. Then Kinase Detection Reagent was added and the final mixture was incubated at 25° C. for 60 minutes. The luminescence signal of the final solution was measured on an Envision instrument (PerkinElmer). The percent (%) inhibition at each concentration of a compound is calculated relative to the luminescence signal in the Max and Min control wells contained within each assay plate. […] The concentrations and percent inhibition values for a test compound are plotted and the concentration of the compound required to achieve 50% inhibition (IC50) is determined with a four-parameter logistic dose response equation.

A further assay has as its target T2, human HIPK2 (Homo sapiens, UniProt Q9H2X6).
T2 construct: Recombinant human HIPK2 (1-640); GST (N); purchased SignalChem H04-11BG; host or cells: Sf9 insect cells
Nature of the assay: HIPK2 enzyme assay (ADP-Glo). The format is biochemical. The settings on record: ADP-Glo, ATP 5 μM; read-out: HIPK2 IC50. As for the experimental part: The ability of compounds to inhibit human HIPK2 kinase activities was determined using a commercially available ADP-Glo™ Kinase Assay kit (Promega, Cat #V9102) according to the manufacturer's protocol.
Recombinant human HIPK2 (1-640) (expressed in Sf9 insect cells with an N-terminal GST tag) was purchased from SignalChem (Cat #H04-11BG). Recombinant full length human MBP (expressed in E. Coli cells with an N-terminal GST tag) was purchased from SignalChem (Cat #M42-54G). This assay, run in a 384-well plate format, is a generic method for measuring kinase activities using an ADP-Glo Kinase Assay Kit. The basic assay procedure involves two steps: (1) Enzymatic step: inhibitors are incubated with the kinase and then ATP (included in the ADP-Glo Kinase Assay Kit) and the MBP protein are added to start the enzymatic reaction; (2) Detection step: after the kinase reaction, first ADP-Glo™ Reagent is added to terminate the kinase reaction and deplete the remaining ATP. Second, the Kinase Detection Reagent is added to simultaneously convert ADP to ATP and allow the newly synthesized ATP to be measured using a luciferase/luciferin reaction. The light generated is measured using a luminometer.
Briefly, HIPK2 (1 nM) in the enzymatic buffer solutions (40 mM Tris, pH 7.5, 20 mM MgCl2, 0.1 mg/ml BSA, 50 μM DTT) were mixed with various concentrations of inhibitors (dissolved in 100% DMSO). These solutions were incubated for 30 minutes at 25° C., and subsequently a mixture of substrate peptide and ATP was added with the final peptide and ATP concentrations at 0.05 mg/ml and 5 μM, respectively. The final reaction mixture of enzyme-substrate-ATP-compound was incubated for 90 minutes at 25° C.
Afterwards ADP-Glo™ Reagent was added and the mixture was incubated at 25° C. for 60 minutes. Then Kinase Detection Reagent was added, and the final mixture was incubated at 25° C. for 60 minutes. The luminescence signal of the final solution was measured on an Envision instrument (PerkinElmer). The percent (%) inhibition at each concentration of a compound is calculated relative to the luminescence signal in the Max and Min control wells contained within each assay plate. […] The concentrations and percent inhibition values for a test compound are plotted and the concentration of the compound required to achieve 50% inhibition (IC50) is determined with a four-parameter logistic dose response equation.
(ADP-Glo first removes unused ATP, then detects ADP through luciferase.)

One may read the IC50 as the concentration needed to halve the response being measured.

T2 sequence (Q9H2X6 1-640): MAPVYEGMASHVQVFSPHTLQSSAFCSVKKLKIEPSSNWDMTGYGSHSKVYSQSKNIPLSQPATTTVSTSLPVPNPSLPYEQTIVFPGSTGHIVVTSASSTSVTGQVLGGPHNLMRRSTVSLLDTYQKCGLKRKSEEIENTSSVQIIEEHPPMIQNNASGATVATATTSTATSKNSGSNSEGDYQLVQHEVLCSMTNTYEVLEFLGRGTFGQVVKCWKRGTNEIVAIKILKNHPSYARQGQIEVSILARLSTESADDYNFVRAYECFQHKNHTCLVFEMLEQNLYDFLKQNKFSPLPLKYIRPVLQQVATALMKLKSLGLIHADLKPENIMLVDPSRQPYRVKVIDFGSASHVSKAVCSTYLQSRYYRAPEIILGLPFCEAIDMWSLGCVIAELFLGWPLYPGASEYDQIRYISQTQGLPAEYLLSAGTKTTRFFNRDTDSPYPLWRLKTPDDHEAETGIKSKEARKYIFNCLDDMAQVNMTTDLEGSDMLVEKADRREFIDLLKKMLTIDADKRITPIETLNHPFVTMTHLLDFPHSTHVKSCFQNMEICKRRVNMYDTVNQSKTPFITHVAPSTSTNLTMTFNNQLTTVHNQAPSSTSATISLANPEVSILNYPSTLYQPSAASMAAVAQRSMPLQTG

Regarding `O=C1NC(N(CC2CC2)c2ccc3ncsc3c2)=N/C1=C\c1ccc2ncsc2c1` [Example 105, (Z)-2-(benzo[d]thiazol-6-yl(cyclopropylmethyl)amino)-5-(benzo[d]thiazol-6-ylmethylene)-3,5-dihydro-4H-imidazol-4-one], the IC50 at human DYRK1A and at human HIPK2 was over 10000 nM in each case. Take `O=C1NC(Nc2ccc3ncsc3c2)=N/C1=C\c1ccc2nc[nH]c2c1` [Example 76, (Z)-5-((1H-benzo[d]imidazol-6-yl)methylene)-2-(benzo[d]thiazol-6-ylamino)-3,5-dihydro-4H-imidazol-4-one]: the values for the IC50 at human DYRK1A and at human HIPK2 were under 100 nM and 100 to 1000 nM, respectively. Take `O=C1NC(Nc2ccc3ncsc3c2)=NC1Cc1ccc2ncsc2c1` (stereo not drawn) [Example 102, 2-(benzo[d]thiazol-6-ylamino)-5-(benzo[d]thiazol-6-ylmethyl)-3,5-dihydro-4H-imidazol-4-one]: the IC50 was in the range of 1000 to 10000 nM on human DYRK1A and 100 to 1000 nM on human HIPK2. `CN(C1=N/C(=C\c2ccc3c(c2)OCCO3)C(=O)N1)c1ccccc1` [Example 8, (Z)-5-((2,3-dihydrobenzo[b][1,4]dioxin-6-yl)methylene)-2-(methyl(phenyl)amino)-3,5-dihydro-4H-imidazol-4-one]: the IC50 at human DYRK1A was 1000 to 10000 nM; at human HIPK2, over 10000 nM.

Consider `CN(C1=N/C(=C\c2ccc3c(c2)OCO3)C(=O)N1)c1ccccc1` [Example 1, (Z)-5-(benzo[d][1,3]dioxol-5-ylmethylene)-2-(methyl(phenyl)amino)-3,5-dihydro-4H-imidazol-4-one], for which the IC50 at human DYRK1A is 100 to 1000 nM; at human HIPK2 it was over 10000 nM. For the molecule `O=C1NC(N(CC2CC2)c2ccccc2)=N/C1=C\c1ccc2c(c1)OCCO2` [Example 39, (Z)-2-((cyclopropylmethyl)(phenyl)amino)-5-((2,3-dihydrobenzo[b][1,4]dioxin-6-yl)methylene)-3,5-dihydro-4H-imidazol-4-one], the values for the IC50 on human DYRK1A and on human HIPK2 were 1000 to 10000 nM and over 10000 nM, respectively. Take `O=C1NC(Nc2ccc3ncsc3c2)=N/C1=C\c1ccc2c(c1)OCO2` [Example 47, (Z)-5-(benzo[d][1,3]dioxol-5-ylmethylene)-2-(benzo[d]thiazol-6-ylamino)-3,5-dihydro-4H-imidazol-4-one]: the IC50 on human DYRK1A and on human HIPK2 was over 10000 nM each time. In the case of `O=C1NC(Nc2ccc3ncsc3c2)=N/C1=C\c1ccc2ncsc2c1` [Example 48, (Z)-2-(benzo[d]thiazol-6-ylamino)-5-(benzo[d]thiazol-6-ylmethylene)-3,5-dihydro-4H-imidazol-4-one], the IC50 on human HIPK2 is under 100 nM. With `O=C1NC(Nc2ccccc2)=N/C1=C\c1ccc2cc[nH]c2c1` [Example 73, (Z)-5-((1H-indol-6-yl)methylene)-2-(phenylamino)-3,5-dihydro-4H-imidazol-4-one], the IC50 at human DYRK1A and at human HIPK2 was over 10000 nM in each case. With `Cn1cnc2cc(NC3=N/C(=C\c4ccc5ncsc5c4)C(=O)N3)ccc21` [Example 61, (Z)-5-(benzo[d]thiazol-6-ylmethylene)-2-((1-methyl-1H-benzo[d]imidazol-5-yl)amino)-3,5-dihydro-4H-imidazol-4-one], the IC50 was under 100 nM at human DYRK1A and 100 to 1000 nM on human HIPK2.

For the molecule `O=C1/C(=C/c2ccc3ncsc3c2)N=C(N(Cc2ccccc2)c2ccccc2)N1Cc1ccccc1` [Example 42, (Z)-5-(benzo[d]thiazol-6-ylmethylene)-3-benzyl-2-(benzyl(phenyl)amino)-3,5-dihydro-4H-imidazol-4-one], the IC50 at human DYRK1A and at human HIPK2 was over 10000 nM in each case. As for `O=C1NC(Nc2ccc3[nH]ccc3c2)=N/C1=C\c1ccc2ncsc2c1` [Example 69, (Z)-2-((1H-indol-5-yl)amino)-5-(benzo[d]thiazol-6-ylmethylene)-3,5-dihydro-4H-imidazol-4-one], the IC50 at human DYRK1A and at human HIPK2 was under 100 nM each time. Turning to `CN(CCN1CCOCC1)C1=N/C(=C\c2ccc3c(c2)OCO3)C(=O)N1` [Example 20, (Z)-5-(benzo[d][1,3]dioxol-5-ylmethylene)-2-(methyl(2-morpholinoethyl)amino)-3,5-dihydro-4H-imidazol-4-one], the values for the IC50 at human DYRK1A and on human HIPK2 were 100 to 1000 nM and over 10000 nM, respectively. As to `CN(CC1CC1)C1=N/C(=C\c2ccc3ncsc3c2)C(=O)N1` [Example 33, (Z)-5-(benzo[d]thiazol-6-ylmethylene)-2-((cyclopropylmethyl)(methyl)amino)-3,5-dihydro-4H-imidazol-4-one], the IC50 on human DYRK1A and at human HIPK2 was 1000 to 10000 nM in each case. On to `CN(CC1CC1)C1=N/C(=C\c2ccc3c(c2)OCCO3)C(=O)N1` [Example 19, (Z)-2-((cyclopropylmethyl)(methyl)amino)-5-((2,3-dihydrobenzo[b][1,4]dioxin-6-yl)methylene)-3,5-di hydro-4H-imidazol-4-one], for which the IC50 is 100 to 1000 nM at human DYRK1A and over 10000 nM on human HIPK2.

`O=C1NC(NCC2CC2)=N/C1=C\c1ccc2ncsc2c1` [Example 34, (Z)-5-(benzo[d]thiazol-6-ylmethylene)-2-((cyclopropylmethyl)amino)-3,5-dihydro-4H-imidazol-4-one]: on human HIPK2, the IC50 fell in the range of 1000 to 10000 nM.

For `O=C1NC(Nc2ccc3ncsc3c2)=N/C1=C\c1ccc2scnc2c1` [Example 57, (Z)-5-(benzo[d]thiazol-5-ylmethylene)-2-(benzo[d]thiazol-6-ylamino)-3,5-dihydro-4H-imidazol-4-one], the IC50 on human HIPK2 is 100 to 1000 nM. Same read-out and setting: with `O=C1NC(Nc2ccc3nccnc3c2)=N/C1=C\c1ccc2ncsc2c1` [Example 82, (Z)-5-(benzo[d]thiazol-6-ylmethylene)-2-(quinoxalin-6-ylamino)-3,5-dihydro-4H-imidazol-4-one] the figure was 100 to 1000 nM; with `O=C1NC(NCc2ccccc2)=N/C1=C\c1ccc2ncsc2c1` [Example 31, (Z)-5-(benzo[d]thiazol-6-ylmethylene)-2-(benzylamino)-3,5-dihydro-4H-imidazol-4-one], 100 to 1000 nM; with `O=C1NC(Nc2ccc(Cl)cc2)=N/C1=C\c1ccc2ncsc2c1` [Example 40, (Z)-5-(benzo[d]thiazol-6-ylmethylene)-2-((4-chlorophenyl)amino)-3,5-dihydro-4H-imidazol-4-one], 1000 to 10000 nM. The same measure, in the same setting: with `O=C1NC(Nc2ccccc2)=N/C1=C\c1ccc2ncsc2c1` [Example 6, (Z)-5-(benzo[d]thiazol-6-ylmethylene)-2-(phenylamino)-3,5-dihydro-4H-imidazol-4-one] the figure was 100 to 1000 nM. Still for that read-out and setting: next, `COc1ccc(NC2=N/C(=C\c3ccc4ncsc4c3)C(=O)N2)cc1` [Example 25, (Z)-5-(benzo[d]thiazol-6-ylmethylene)-2-((4-methoxyphenyl)amino)-3,5-dihydro-4H-imidazol-4-one]: 100 to 1000 nM.
